According to PMC6316187, “Synergistic AML Cell Death Induction by Marine Cytotoxin (+)-1(R), 6(S), 1’(R), 6’(S), 11(R), 17(S)-Fistularin-3 and Bcl-2 Inhibitor Venetoclax” (Marine Drugs, 2018):

Target: DNA methyltransferase 1 (DNMT1) (Homo sapiens, UniProt P26358)
Assay: in vitro DNMT activity/inhibition assay (Active Motif), […] ng purified DNMT1, colorimetric; […] compound
Assay type: biochemical

DNA methyltransferase 1 (DNMT1), sequence (P26358 whole entry): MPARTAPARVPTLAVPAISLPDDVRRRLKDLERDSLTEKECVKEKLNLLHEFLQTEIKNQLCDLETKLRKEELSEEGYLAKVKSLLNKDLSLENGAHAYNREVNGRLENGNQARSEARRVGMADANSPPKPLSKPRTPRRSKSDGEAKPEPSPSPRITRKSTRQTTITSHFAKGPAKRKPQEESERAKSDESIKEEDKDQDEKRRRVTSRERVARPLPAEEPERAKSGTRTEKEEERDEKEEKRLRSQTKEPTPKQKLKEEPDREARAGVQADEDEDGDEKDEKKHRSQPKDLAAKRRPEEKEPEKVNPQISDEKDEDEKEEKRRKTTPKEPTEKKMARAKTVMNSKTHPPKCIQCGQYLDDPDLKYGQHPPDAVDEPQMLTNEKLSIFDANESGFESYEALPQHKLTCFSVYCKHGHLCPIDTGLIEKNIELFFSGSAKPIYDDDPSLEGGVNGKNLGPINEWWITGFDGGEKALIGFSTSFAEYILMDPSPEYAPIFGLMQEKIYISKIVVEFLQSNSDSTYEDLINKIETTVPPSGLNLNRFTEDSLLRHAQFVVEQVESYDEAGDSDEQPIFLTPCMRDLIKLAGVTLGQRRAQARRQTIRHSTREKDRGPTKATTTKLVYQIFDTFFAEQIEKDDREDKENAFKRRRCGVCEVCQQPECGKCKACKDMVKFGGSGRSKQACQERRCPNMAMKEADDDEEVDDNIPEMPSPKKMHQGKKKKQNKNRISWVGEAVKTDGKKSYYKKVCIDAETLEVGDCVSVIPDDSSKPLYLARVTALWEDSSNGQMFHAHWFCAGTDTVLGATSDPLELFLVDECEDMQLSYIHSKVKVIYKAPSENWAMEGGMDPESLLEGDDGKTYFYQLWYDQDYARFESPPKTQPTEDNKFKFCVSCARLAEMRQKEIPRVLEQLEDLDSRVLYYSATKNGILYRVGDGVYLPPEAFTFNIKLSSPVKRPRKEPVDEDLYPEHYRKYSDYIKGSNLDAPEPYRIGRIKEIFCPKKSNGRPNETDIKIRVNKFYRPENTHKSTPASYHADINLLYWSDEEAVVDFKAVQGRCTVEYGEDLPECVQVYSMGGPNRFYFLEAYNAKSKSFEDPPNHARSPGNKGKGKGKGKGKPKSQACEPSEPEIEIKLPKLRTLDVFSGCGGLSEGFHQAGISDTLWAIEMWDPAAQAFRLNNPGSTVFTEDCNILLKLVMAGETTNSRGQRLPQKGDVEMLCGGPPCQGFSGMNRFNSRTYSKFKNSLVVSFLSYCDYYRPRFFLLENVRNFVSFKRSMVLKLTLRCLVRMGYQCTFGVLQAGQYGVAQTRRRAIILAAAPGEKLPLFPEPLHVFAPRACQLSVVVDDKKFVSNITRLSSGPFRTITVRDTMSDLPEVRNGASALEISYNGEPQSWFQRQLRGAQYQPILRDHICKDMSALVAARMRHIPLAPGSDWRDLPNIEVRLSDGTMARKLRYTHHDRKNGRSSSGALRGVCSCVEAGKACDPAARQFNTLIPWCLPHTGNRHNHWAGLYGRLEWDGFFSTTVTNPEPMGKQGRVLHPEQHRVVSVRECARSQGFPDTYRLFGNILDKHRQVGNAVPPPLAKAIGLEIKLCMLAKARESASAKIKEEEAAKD

inhibition at 50 µM: ~25%
SMILES: COC1=C(Br)[C@H](O)[C@@]2(C=C1Br)CC(C(=O)NC[C@@H](O)COc1c(Br)cc([C@H](O)CNC(=O)C3=NO[C@]4(C=C(Br)C(OC)=C(Br)[C@@H]4O)C3)cc1Br)=NO2 [RS-F3, (+)-11(R), 17(S)-fistularin-3]
